Results from patent publication US12577206B2 (BRISTOL-MYERS SQUIBB COMPANY, priority 2020, dated 2026).

Assays:
human FPR1 = molecular target: T1, human FPR1 (Homo sapiens, UniProt P21462); assay: FPR1 cyclic adenosine monophosphate (cAMP) assay; type: cell-based; conditions: CHO cells overexpressing human FPR1; forskolin 10 μM; inhibition of cAMP production; HTRF; read-out: hFPR1 cAMP2 EC50
T1 sequence (P21462 1-350): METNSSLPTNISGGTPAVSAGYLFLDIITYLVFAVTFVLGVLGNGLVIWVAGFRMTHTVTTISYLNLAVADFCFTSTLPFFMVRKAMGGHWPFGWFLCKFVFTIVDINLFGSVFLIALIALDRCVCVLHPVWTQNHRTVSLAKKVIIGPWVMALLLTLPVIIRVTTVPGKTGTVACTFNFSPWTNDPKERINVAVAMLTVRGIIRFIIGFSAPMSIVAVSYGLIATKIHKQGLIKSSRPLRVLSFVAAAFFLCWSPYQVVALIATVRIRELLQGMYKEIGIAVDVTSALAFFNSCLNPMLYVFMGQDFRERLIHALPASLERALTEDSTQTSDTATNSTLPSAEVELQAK
How it was run: (§1)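 CHO/hFPR1 4,000 cells/well, forskolin 10 μM final; CHO/hFPR2 2,000 cells/well, forskolin 5 μM final. IBMX 200 μM, DMSO 1%, DPBS + Ca/Mg + 0.1% BSA, 30 min rt. HTRF cAMP; 4-PL fit.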

human FPR2 = molecular target: T2, human FPR2 (Homo sapiens, UniProt P25090); assay: FPR2 cyclic adenosine monophosphate (cAMP) assay; type: cell-based; conditions: CHO cells overexpressing human FPR2; forskolin 5 μM; inhibition of cAMP production; HTRF; read-out: hFPR2 cAMP2 EC50
T2 sequence (P25090 1-351): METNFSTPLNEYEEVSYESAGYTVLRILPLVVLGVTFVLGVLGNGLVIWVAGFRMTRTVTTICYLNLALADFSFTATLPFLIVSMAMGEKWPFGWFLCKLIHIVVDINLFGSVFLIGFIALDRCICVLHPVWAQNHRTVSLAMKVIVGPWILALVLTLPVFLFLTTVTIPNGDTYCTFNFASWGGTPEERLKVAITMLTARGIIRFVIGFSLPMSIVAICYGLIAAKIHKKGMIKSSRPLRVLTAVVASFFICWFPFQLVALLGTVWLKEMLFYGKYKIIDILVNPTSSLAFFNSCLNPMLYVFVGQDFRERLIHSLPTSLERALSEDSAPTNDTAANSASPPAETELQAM
How it was run: as §1

Structure (SMILES) | EC50 (human FPR1) [nM] | EC50 (human FPR2) [nM]
COc1cc(F)c(-c2c(NC(=O)c3ccc(OC(F)F)cc3)c(=O)n(-c3cccc(CN4CCN(C)CC4)n3)n2C)c(F)c1 [Example 205, N-[5-(2,6-difluoro-4-methoxyphenyl)-1-methyl-2-{6-[(4-methylpiperazin-1-yl)methyl]pyridin-2-yl}-3-oxo-2,3-dihydro-1H-pyrazol-4-yl]-4-(difluoromethoxy)benzamide] | > 10000 | 25
COCc1ccc(C(F)(F)F)c(-n2c(=O)c(NC(=O)c3ccc(OC(F)F)cc3)c(-c3c(F)cc(OC)cc3F)n2C)n1 [Example 196, N-[5-(2,6-difluoro-4-methoxyphenyl)-2-[6-(methoxymethyl)-3-(trifluoromethyl)pyridin-2-yl]-1-methyl-3-oxo-2,3-dihydro-1H-pyrazol-4-yl]-4-(difluoromethoxy)benzamide] | > 10000 | 9
COc1cc(C2CCOCC2)nc(-n2c(=O)c(NC(=O)c3ccc(OC(F)F)cc3)c(-c3c(F)cc(OC)cc3F)n2C)c1 [Example 345, N-(5-(2,6-Difluoro-4-methoxyphenyl)-2-(4-methoxy-6-(tetrahydro-2H-pyran-4-yl)pyridin-2-yl)-1-methyl-3-oxo-2,3-dihydro-1H-pyrazol-4-yl)-4-(difluoromethoxy)benzamide] | > 10000 | 5
CCc1cccc(-n2c(=O)c(NC(=O)c3ccc(OC(F)F)cc3)c(-c3c(F)cc(OC)cc3F)n2C)n1 [Example 163, N-[5-(2,6-difluoro-4-methoxyphenyl)-2-(6-ethylpyridin-2-yl)-1-methyl-3-oxo-2,3-dihydro-1H-pyrazol-4-yl]-4-(difluoromethoxy)benzamide] | > 10000 | 4
COc1cc(F)c(-c2c(NC(=O)c3ccc(OC(F)F)cc3)c(=O)n(-c3cccc(N4CCN(C)CC4)n3)n2C)c(F)c1 [Example 83, N-[5-(2,6-difluoro-4-methoxyphenyl)-1-methyl-2-[6-(4-methylpiperazin-1-yl)pyridin-2-yl]-3-oxo-2,3-dihydro-1H-pyrazol-4-yl]-4-(difluoromethoxy)benzamide] | > 10000 | 2
COc1cc(F)c(-c2c(NC(=O)c3ccc(OC(F)F)cc3)c(=O)n(-c3cccc(N4CCN(CCCO)CC4)n3)n2C)c(F)c1 [Example 208, N-[5-(2,6-difluoro-4-methoxyphenyl)-2-{6-[4-(3-hydroxypropyl)piperazin-1-yl]pyridin-2-yl}-1-methyl-3-oxo-2,3-dihydro-1H-pyrazol 4-yl]-4-(difluoromethoxy)benzamide] | > 10000 | 3
COc1cc(F)c(-c2c(NC(=O)c3ccc(OC(F)F)cc3)c(=O)n(-c3ccccc3C#N)n2C)c(F)c1 [Example 173, N-[2-(2-cyanophenyl)-5-(2,6-difluoro-4-methoxyphenyl)-1-methyl-3-oxo-2,3-dihydro-1H-pyrazol-4-yl]-4-(difluoromethoxy)benzamide] | > 10000 | 20

Other lines, results leading:

EC50 (human FPR1) [nM] | EC50 (human FPR2) [nM] | Structure (SMILES)
140 | 6 | COc1cc(F)c(-c2c(NC(=O)c3ccc(OC(F)F)cc3)c(=O)n(-c3cccc(OC)c3Cl)n2C)c(F)c1 [Example 181, N-[2-(2-chloro-3-methoxyphenyl)-5-(2,6-difluoro-4-methoxyphenyl)-1-methyl-3-oxo-2,3-dihydro-1H-pyrazol-4-yl]-4-(difluoromethoxy)benzamide]
1400 | 32 | COc1ccc(-c2c(NC(=O)c3ccc(OC(F)F)cc3)c(=O)n(-c3ncccc3Cl)n2C)cc1F [Example 294, N-[2-(3-chloropyridin-2-yl)-5-(3-fluoro-4-methoxyphenyl)-1-methyl-3-oxo-2,3-dihydro-1H-pyrazol-4-yl]-4-(difluoromethoxy)benzamide]
> 10000 | 5 | COc1cc(F)c(-c2c(NC(=O)c3ccc(OC(F)F)cc3)c(=O)n(-c3nc(C(F)(F)F)ccc3OCC3CCOC3)n2C)c(F)c1 (stereo not shown) [Example 370, N-(5-(2,6-Difluoro-4-methoxyphenyl)-1-methyl-3-oxo-2-(3-((tetrahydrofuran-3-yl)methoxy)-6-(trifluoromethyl)pyridin-2-yl)-2,3-dihydro-1H-pyrazol-4-yl)-4-(difluoromethoxy)benzamide]
> 10000 | 12 | COc1cc(F)c(-c2c(NC(=O)c3ccc(OC(F)F)cc3)c(=O)n(-c3nc(OC)ccc3Cl)n2C)c(F)c1 [Example 182, N-[2-(3-chloro-6-methoxypyridin-2-yl)-5-(2,6-difluoro-4-methoxyphenyl)-1-methyl-3-oxo-2,3-dihydro-1H-pyrazol-4-yl]-4-(difluoromethoxy)benzamide]
4800 | 4 | COc1cc(F)c(-c2c(NC(=O)c3ccc(OC(F)F)cc3)c(=O)n(-c3nc(N4CC(C)(O)C4)ccc3C(F)(F)F)n2C)c(F)c1 [Example 138, N-[5-(2,6-difluoro-4-methoxyphenyl)-2-[6-(3-hydroxy-3-methylazetidin-1-yl)-3-(trifluoromethyl)pyridin-2-yl]-1-methyl-3-oxo-2,3-dihydro-1H-pyrazol-4-yl]-4-(difluoromethoxy)benzamide]
> 5000 | 8 | COc1cc(F)c(-c2c(NC(=O)c3ccc(OC(F)F)cc3)c(=O)n(-c3nc(N4CC5(CC(O)C5)C4)ccc3Cl)n2C)c(F)c1 [Example 299, N-[2-(3-chloro-6-{6-hydroxy-2-azaspiro[3.3]heptan-2-yl}pyridin-2-yl)-5-(2,6-difluoro-4-methoxyphenyl)-1-methyl-3-oxo-2,3-dihydro-1H-pyrazol-4-yl]-4-(difluoromethoxy)benzamide]
6800 | 3 | COc1cc(F)c(-c2c(NC(=O)c3ccc(OC(F)F)cc3)c(=O)n(-c3nc(N(C)C)ccc3C(F)(F)F)n2C)c(F)c1 [Example 136, N-[5-(2,6-difluoro-4-methoxyphenyl)-2-[6-(dimethylamino)-3-(trifluoromethyl)pyridin-2-yl]-1-methyl-3-oxo-2,3-dihydro-1H-pyrazol-4-yl]-4-(difluoromethoxy)benzamide]
> 5000 | 13 | COc1cc(F)c(-c2c(NC(=O)c3ccc(OC(F)F)cc3)c(=O)n(-c3nc(OCC4CC4)ccc3C(F)(F)F)n2C)c(F)c1 [Example 287, N-{2-[6-(cyclopropylmethoxy)-3-(trifluoromethyl)pyridin-2-yl]-5-(2,6-difluoro-4-methoxyphenyl)-1-methyl-3-oxo-2,3-dihydro-1H-pyrazol-4-yl}-4-(difluoromethoxy)benzamide]
2300 | 7 | COc1cc(F)c(-c2c(NC(=O)c3ccc(OC(F)F)cc3)c(=O)n(-c3cccc(OC)n3)n2C)c(F)c1 [Example 75, N-[5-(2,6-difluoro-4-methoxyphenyl)-2-(6-methoxypyridin-2-yl)-1-methyl-3-oxo-2,3-dihydro-1H-pyrazol-4-yl]-4-(difluoromethoxy)benzamide]
3400 | 6 | COc1cc(F)c(-c2c(NC(=O)c3ccc(OC(F)F)cc3)c(=O)n(-c3nc(N4CCN(CC(F)F)CC4)ccc3C(F)(F)F)n2C)c(F)c1 [Example 270, N-[5-(2,6-difluoro-4-methoxyphenyl)-2-{6-[4-(2,2-difluoroethyl)piperazin-1-yl]-3-(trifluoromethyl)pyridin-2-yl}-1-methyl-3-oxo-2,3-dihydro-1H-pyrazol-4-yl]-4-(difluoromethoxy)benzamide]
